# Source: US8017646B2, “Histamine H3-receptor ligands and their therapeutic application” (Bioprojet, priority 2005, dated 2011)
# Structures can show the parent of a compound that is named as a salt. Where two headings read alike, the source gives them in different places.
# Legend:
# [1] = target: CYP3A4 (Homo sapiens, UniProt P08684); assay: Cytochrome inhibition, fluorometric assay, CYP3A4; assay type: biochemical; conditions: human recombinant CYP3A4, substrate BFC; read-out: cytochrome inhibition (IC50, concentrations for 50% inhibition) CYP3A4
# Description: (§1) The ability of drug in human to inhibit the catalytic activity of cytochrome P-450 isoforms was assayed using microtiter plate-based, fluorometric assays for the activities of the five human major CYP forms. Inhibition potential was determined in vitro after incubation of fluorescent model substrates over various incubation time with human recombinant cytochrome isoforms in the absence or in presence of increasing concentrations of test molecules (from 1 nM to 100 μM), in comparison with specific CYP isoform inhibitors. Data were expressed as quantitative inhibition parameters [inhibitor concentration that produces 50% inhibition (IC50 value)]. Incubation of drug was carried out at 37° C.±0.5° C. under agitation in the presence of human recombinant cytochrome P-450 isoforms and a NADPH generating system. The incubation conditions for each cytochrome isoform were as follow: [table]
# [2] = target: human histamine H3 receptors (Homo sapiens, UniProt Q9Y5N1); assay: H3 binding ([125I]iodoproxyfan displacement); conditions: for Ki: membranes expressing human histamine H3 receptors, [125I]iodoproxyfan
# Description: Membranes expressing human histamine H3 receptors were incubated 1 hour at room temperature in binding buffer containing 50 mM Na2HPO4/KH2PO4 pH 7.5 in a final volume of 200 μl. […] Amersham Pharmacia Biotech) concentrations ranged between 20 and 40 pM. Non-specific binding was determined in the presence of 1 μM Imetit. The reaction was stopped by rapid filtration through GF/B filters (pre-soaked for 2 hours with 0.3% polyethyleneimine) followed by 3 ice cold binding buffer washes. The filter-bound radioactivity was measured in a liquid scintillation counter with 50 μl of scintillation fluid.
# [3] = target: CYP2D6 (Homo sapiens, UniProt P10635); assay: Cytochrome inhibition, fluorometric assay, CYP2D6; assay type: biochemical
# Description: as §1, with “value)].” for “value)]. Incubation of drug was carried out at 37° C.±0.5° C. under agitation in the presence of human recombinant cytochrome P-450 isoforms and a NADPH generating system. The incubation conditions for each cytochrome isoform were as follow: [table]”
# Incubation of drug was carried out at 37° C.±0.5° C. under agitation in the presence of human recombinant cytochrome P-450 isoforms and a NADPH generating system. The incubation conditions for each cytochrome isoform were as follow: […]
# [4] = human recombinant CYP2D6, substrate AMMC, read-out: cytochrome inhibition (IC50, concentrations for 50% inhibition) CYP2D6
# Chain of CYP2D6 (P10635 whole entry, canonical isoform): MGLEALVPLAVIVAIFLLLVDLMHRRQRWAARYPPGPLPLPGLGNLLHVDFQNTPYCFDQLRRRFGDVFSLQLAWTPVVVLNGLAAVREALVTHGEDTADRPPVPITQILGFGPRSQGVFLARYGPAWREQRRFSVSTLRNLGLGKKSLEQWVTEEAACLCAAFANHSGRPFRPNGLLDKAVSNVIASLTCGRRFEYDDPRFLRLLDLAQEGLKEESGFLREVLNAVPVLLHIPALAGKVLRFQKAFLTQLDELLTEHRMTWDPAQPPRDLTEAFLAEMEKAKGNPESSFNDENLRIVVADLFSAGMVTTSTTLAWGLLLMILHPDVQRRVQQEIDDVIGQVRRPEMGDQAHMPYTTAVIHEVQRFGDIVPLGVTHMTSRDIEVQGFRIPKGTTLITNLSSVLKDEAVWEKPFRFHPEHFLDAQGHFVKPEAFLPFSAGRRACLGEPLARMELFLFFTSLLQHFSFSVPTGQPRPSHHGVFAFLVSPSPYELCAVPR
# Chain of CYP3A4 (P08684 whole entry, canonical isoform): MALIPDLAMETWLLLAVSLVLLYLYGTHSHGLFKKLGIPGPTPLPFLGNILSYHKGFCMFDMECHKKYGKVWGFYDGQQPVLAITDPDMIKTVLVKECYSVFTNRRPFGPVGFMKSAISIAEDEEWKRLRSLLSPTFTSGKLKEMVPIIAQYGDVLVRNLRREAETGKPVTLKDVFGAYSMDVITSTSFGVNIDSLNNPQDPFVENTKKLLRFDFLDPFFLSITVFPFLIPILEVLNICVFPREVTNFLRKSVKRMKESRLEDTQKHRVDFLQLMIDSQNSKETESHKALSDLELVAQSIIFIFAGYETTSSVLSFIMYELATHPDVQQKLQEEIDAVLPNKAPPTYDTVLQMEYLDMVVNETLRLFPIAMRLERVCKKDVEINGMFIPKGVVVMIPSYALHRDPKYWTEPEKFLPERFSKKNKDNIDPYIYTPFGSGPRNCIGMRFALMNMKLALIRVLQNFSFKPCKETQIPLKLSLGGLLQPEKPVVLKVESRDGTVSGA
# Chain of human histamine H3 receptors (Q9Y5N1 whole entry): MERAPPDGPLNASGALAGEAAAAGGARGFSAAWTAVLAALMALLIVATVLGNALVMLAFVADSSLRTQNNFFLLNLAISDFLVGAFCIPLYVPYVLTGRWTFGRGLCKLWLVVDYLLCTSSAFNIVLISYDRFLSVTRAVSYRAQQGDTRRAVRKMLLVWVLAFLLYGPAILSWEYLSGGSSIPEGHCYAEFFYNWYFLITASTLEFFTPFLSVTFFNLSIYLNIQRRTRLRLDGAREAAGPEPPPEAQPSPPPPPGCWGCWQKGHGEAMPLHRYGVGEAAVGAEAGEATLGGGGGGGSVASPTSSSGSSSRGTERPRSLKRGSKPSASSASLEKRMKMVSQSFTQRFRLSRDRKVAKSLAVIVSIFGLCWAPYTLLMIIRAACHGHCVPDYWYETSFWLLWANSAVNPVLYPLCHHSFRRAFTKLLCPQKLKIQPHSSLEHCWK
IC50 [1] [µM],Ki [2] [µM],"IC50 [3, 4] [µM]",melting point [°C],"IC50 ([3]; comparative compound disclosed in WO 00/06254, read-out: cytochrome inhibition (IC50) CYP2D6) [µM]",Structure (SMILES),"Kd ([2]; radioligand at human H3 receptor membranes, read-out: Kd (hH3 binding)) [nM]"
23,0.00038,18,–,–,"COc1cc(F)ccc1CCCOCCCN1CCCC1 [Example 11, 1-{3-[3-(4-fluoro-2-methoxyphenyl)propoxy]propyl}pyrrolidine, oxalate]",–
> 100,–,81,106,–,"Fc1ccc(CCCOCCCN2CCCC2)cc1.O=C(O)C(=O)O [Example 7, 1-{3-[3-(4-fluorophenyl)propoxy]propyl}pyrrolidine, oxalate]",–
10.6,0.0047,4.4,–,–,"C(=C\c1ccc2c(c1)OCO2)/COCCCN1CCCC1 [Example 14, trans-1-{3-[3-(benzodioxol-5-yl)allyloxy]propyl}pyrrolidine, oxalate]",–
> 10,–,> 10,–,–,"Cc1ccc(CCCOCCCN2CCCCC2)cc1 [Example 4, 1-{3-[3-(4-methylphenyl)propoxy]propyl}piperidine, oxalate]",–
> 10,–,> 10,–,–,"COc1ccc(CCCOCCCN2CCCCC2)cc1OC [Example 3, 1-{3-[3-(3,4-dimethoxyphenyl)propoxy]propyl}piperidine, oxalate]",–
> 10,–,> 1,–,–,"Cc1cc(CCCOCCCN2CCCC2)ccc1F [Example 10, 1-{3-[3-(4-fluoro-3-methylphenyl)propoxy]propyl}pyrrolidine, oxalate]",–
> 10,–,> 1,–,–,"COc1cc(/C=C/COCCCN2CCCC2)ccc1F [Example 8, trans-1-{3-[3-(4-fluoro-3-methoxyphenyl)allyloxy]propyl}pyrrolidine, oxalate]",–
> 10,–,> 10,–,–,"COc1ccc(CCCOCCCN2CCCC2)cc1OC [Example 1, 1-{3-[3-(3,4-dimethoxyphenyl)propoxy]propyl}pyrrolidine, oxalate]",–
> 10,–,> 1,–,–,"C(=C\c1ccc2occc2c1)/COCCCN1CCCC1 [Example 12, trans-1-{3-[3-(benzofuran-5-yl)allyloxy]propyl}pyrrolidine, oxalate]",–
> 10,–,> 10,111 to 112,–,"COc1ccc(/C=C/COCCCN2CCCCC2)cc1OC.O=C(O)C(=O)O [Example 2, trans-1-{3-[3-(3,4-dimethoxyphenyl)allyloxy]propyl}piperidine, oxalate]",–
> 10,–,> 10,–,–,"C(=C\c1ccc2c(c1)OCCO2)/COCCCN1CCCCC1.O=C(O)C(=O)O [Example 13, 1-{3-[3-(2,3-dihydrobenzo[1,4]dioxin-6-yl)allyl]oxy}propyl)piperidine, oxalate]",–
> 10,–,> 1,–,–,"c1ccc2cc(CCCOCCCN3CCCCC3)ccc2c1 [Example 5, 1-{3-[3-(2-naphtyl)propoxy]propyl}piperidine, oxalate]",–
–,–,–,–,–,"Ic1ccc(COCCCc2cnc[nH]2)cc1 [[^125]iodoproxyfan, reference compound]",0.078 ± 0.006
–,–,–,–,0.059,Clc1ccc(CCCOCCCN2CCCCC2)cc1 [reference compound],–
–,–,–,120,–,C(=C\c1ccc2c(c1)OCCO2)/COCCCN1CCCCC1.O=C(O)C(=O)O [Example 13],–
> 100,0.0017,> 100,–,–,"COc1cc(CCCOCCCN2CCCC2)ccc1F [Example 9, 1-{3-[3-(4-fluoro-3-methoxyphenyl)propoxy]propyl}pyrrolidine, oxalate]",–
> 10,–,> 1,–,–,"COc1cc(CCCOCCCN2CCCCC2)ccc1O [Example 6, 1-{3-[3-(4-hydroxy-3-methoxyphenyl)propoxy]propyl}piperidine, oxalate]",–
